Measured values as given in US12130283B2, “Methods, systems and compositions for functional in vitro cellular models of mammalian systems” (University of Central Florida Research Foundation, Inc., priority 2012, dated 2024).

Tests used:
[1] = in vivo; cited from earlier work
colon cancer = conditions: cited from earlier work
[2] = tested on: patterned neonatal cardiomyocytes; assay: Field potential recordings from patterned neonatal cardiomyocytes on microelectrode arrays; format: cell-based, rat
Source text: However, commercial MEAs have electrodes spaced too close to allow effective measurement of conduction velocity, so the long linear surface chemistry patterns developed in [Natarajan 2011] allowed for measurement of conduction velocity in the spontaneously beating patterned cardiomyocytes effectively.
The μCCA in FIG. 4 required the use of liver cells and cardiac myocytes. In FIG. 4GB, pump is 43, other tissues compartment is 44, and bubble is 45. The neonatal cardiac myocyte cultures are obtained from two-day-old rat pups by previously published methods [Dhir 2009; Natajaran 2011]. Cardiac myocytes were plated at a density of […] on the patterned MEAs. Approximately 10 days were required for the cultures to establish themselves. Cardiac myocytes were stable on the patterns for at least 30 days. A silicon rubber gasket was used to isolate the tissue chambers on the μCCA prior to assembly to allow optimization of culture conditions in each chamber. After 10 days, cells were introduced to the liver compartment. […]
The cardiac myocytes were cultured on patterned metal MEAs (Planar 10 μm electrodes, 200 μm separation. Multichannel-systems). […] After a 30 minute incubation period, APs were detected and recorded using built in functions of the Multichannel System software. […] The data was further analyzed using software written using Matlab and Clampfit (Axon instruments).

cultured cardiomyocytes = assay: Spontaneous firing rate of cultured cardiomyocytes on patterned MEA (FIG. 14F); format: cell-based, human
Source text: The disclosed systems are based on human cardiac myocytes. As described herein, the incorporation of a functional cardiac system based on patterned cardiac cells integrated with microelectrode assays enabled the measurement of several cardiac parameters including conduction velocity, peak amplitude and spontaneous frequency, QT interval, and relative refractory period (which is related to triangulation). […] As shown in FIGS. 14A-F, cardiac function can be mimicked or simulated using a component comprising a microcantilever detection system (14A) or a patterned MEA (microelectrode array), FIG. 14D. […] Spontaneous or electrical stimulation-evoked force generation of cardiac myocytes was measured based on optical or electrical detection of cantilever-bending. […] The sensor detected the displacement of the laser beam caused by changes in the position of the cantilever. […] Peak contraction force and force-contraction velocity relationships were calculated based on the geometry of the cantilevers and the thickness of cultured cardiac myocytes (determined from immunostaining data). Compounds (such as norepinephrine, verapamil, and sotalol) were applied using traditional methods to the medium and possible changes in force or force-velocity relationship were detected and analyzed using standard statistical methods. […]

With CC1(C)C(C=C(Cl)Cl)C1C(=O)OCc1cccc(Oc2ccccc2)c1 (stereo not drawn) [cis-permethrin] as the molecule, how does the “toxicity of cis isomers relative to trans isomers” value [1] read?
The value was “about ten times more toxic”.

Which “effect on the toxicity of Tegafur” value (colon cancer) does the source give for O=c1cc[nH]c(=O)[nH]1 [uracil] here?
The value was “enhances the toxicity of Tegafur”.

For CCCCCCCO [1-Heptanol], which “conduction velocity (CV) after Heptanol exposure” value ([2]; between electrodes 84 and 52, CV before addition of the drug 0.22 m/sec) is on record?
Its value is 0.011 m/sec.

With O=c1[nH]c(=O)n(C2CCCO2)cc1F (stereo not drawn) [Tegafur] as the molecule, how does the “optimal uracil to Tegafur ratio” value (colon cancer; maximizing the concentration of 5-FU in the tumor relative to that in the blood) read?
Its value is 4 to 1.

For C[C@@H]1CN(c2c(F)c(N)c3c(=O)c(C(=O)O)cn(C4CC4)c3c2F)C[C@H](C)N1 [sparfloxacin], which “responsiveness of the patterned cardiac system” value [2] is on record?
The value was “responsive”.

Which “effect on spontaneous firing rates” value (cultured cardiomyocytes) does the source give for NC[C@H](O)c1ccc(O)c(O)c1 [norepinephrine] here?
The value was “elicits alteration of spontaneous firing rates”.
